For series [1] the following is noted: in comparison with sodium valproate or valproic acid; cited from earlier work.
In a further series the test system is deacetylase. Conditions: dose between 20 and 40 mg/kg; patients with cervical cancer; cited from earlier work.
A short description of series [2]: Stability of the solid during storage. It is filed as physicochemical. Conditions: ambient conditions where stated, hydrate.
The next series has as its system epileptic patients. Nature of the series: Open, comparative clinical trial in epileptic patients versus sodium valproate. The conditions noted are these: expected. From the text:
The therapeutic benefit of magnesium valproate hydrate of the present invention is compared with that of sodium valproate in an open, comparative clinical trial in epileptic patients. […] Then treatment is substituted with magnesium valproate hydrate (alone or combined with other drugs) for 3 months.

A short description of series [3]: Hygroscopicity / deliquescence of the solid. Conditions: isolated solid. It is filed as physicochemical.
For series [4] the following is noted: background statement; cited from earlier work.
The conditions of series [5]: cited from earlier work.
[6] abbreviates: after 3 months of magnesium valproate hydrate, substituted for sodium valproate.

In the case of “2-propylpentanoic acid magnesium salt [magnesium valproate]”, the absorption rate result in series [1] was “slower and more regular absorption rate”. Moreover, the “deacetylase activity and histone acetylation in tumor tissues” value in the series on deacetylase was “inhibits deacetylase activity and hyperacetylates histones”.
With magnesium valproate hydrate, the stability during storage entry in series [2] was “stable during storage under ambient conditions”. Besides, in the series on epileptic patients (setting [6]), the “number of patients with no convulsions or only occasional convulsions” value is “increase significantly” and the “percentage of patients without convulsions” value is given as “increase significantly”. In the series with epileptic patients (versus sodium valproate), the “side effects (e.g., gastric discomfort or ulceration, malaise)” value is “fewer side effects”. For the same compound, the hygroscopicity / deliquescence result in series [3] is “not hygroscopic or deliquescent”.
As for `CCCC(CCC)C(=O)[O-].[Na+]` [Sodium valproate], in series [4], the hygroscopicity entry is “hygroscopic”.
Turning to `CCCC(CCC)C(=O)O` [divalproex sodium], the hygroscopicity entry in series [4] is “not hygroscopic”.
For the compound `CCCC(CCC)C(=O)O` [Valproic acid, 2-propylpentanoic acid], the solubility in water result in series [5] is reported as “very slightly soluble in water”.
